# Laboratory results taken from patent publication US20230406883A1, “COMPOUNDS AND THEIR USE IN TREATMENT OF TACHYKININ RECEPTOR MEDIATED DISORDERS” (Embark Biotech ApS, priority 2020, published 2023).
# Where “and” joins values, the source holds several entries; their conditions need not be identical. Equal values may be shown once. Numbered stars: 1 amine (or outer) side, 2 acyl side, 3 side chain; on linkers, the order of the positions; unused ones are H or OH. Square brackets hold non-standard residues; d marks the D form. Peptide text beside a SMILES is read from it. * marks the point of attachment. C18 diacid = O=C(O)CCCCCCCCCCCCCCCCC(=O)*; γGlu = O=C(O)[C@H](CCC(=O)[*:2])N[*:1]; NMeL = CN[C@@H](CC(C)C)C(=O)O; hSer = N[C@@H](CCO)C(=O)O; Nle = CCCC[C@H](N)C(=O)O; AEEA = NCCOCCOCC(=O)O
# Columns and labels:
# hNK2R [1] = target: T1, hNK2R (Homo sapiens, UniProt P21452); test: IP3 assay (inositol trisphosphate, 3H-myoinositol) in transiently transfected COS-7 cells; type: cell-based; conditions: COS-7 cells; for EC50: 0.2% ovalbumin buffer; for hNK2R, IP3 Efficacy: figure legends: percent of 10^-6 M NKA
# T1 construct: host or cells: COS-7
# T1 sequence (P21452 1-398): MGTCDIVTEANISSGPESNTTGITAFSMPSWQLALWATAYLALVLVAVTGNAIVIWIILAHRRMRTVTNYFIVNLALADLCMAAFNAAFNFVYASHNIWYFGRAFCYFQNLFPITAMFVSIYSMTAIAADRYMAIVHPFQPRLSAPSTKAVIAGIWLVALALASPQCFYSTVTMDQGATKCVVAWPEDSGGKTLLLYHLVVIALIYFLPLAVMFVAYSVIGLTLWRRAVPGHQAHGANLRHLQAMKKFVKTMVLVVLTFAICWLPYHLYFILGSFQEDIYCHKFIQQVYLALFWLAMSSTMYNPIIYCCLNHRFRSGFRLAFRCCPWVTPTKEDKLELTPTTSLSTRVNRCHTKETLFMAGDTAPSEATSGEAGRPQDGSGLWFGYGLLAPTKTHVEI
# Method in brief: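 COS-7 cells were transiently transfected with receptor plasmid and labelled with ³H-myo-inositol. Cells were lysed in formic acid, and ³H-inositol phosphates were captured on SPA YSI beads and counted.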
# hNK2R [2] = target: T1, hNK2R; test: 3H-NKA competitive binding on transfected COS-7 cells; conditions: competition with 3H-NKA, 4 h at 4 C
# Experimental: Assays were carried out using COS-7 cells transiently transfected by calcium phosphate transfection with a vector pcDNA3.1(+) encoding one of the indicated receptors (Genscript). Briefly, DNA mixed with CaCl2 (2 M) and TE-buffer (10 mM Tris-HCl, 1 mM EDTA, pH 7.5) was dropwise added to 2×HBS (50 mM HEPES, 280 mM NaCl, 1.5 mM NaH2PO4, pH 7.2) and incubated for 45 min at room temperature (22±2° C.). The mixture and a final concentration of 100 μM Chloroquine were added to the cells and left to incubate for 5 hours at 37° C. under standard cell culture conditions (10% CO2) before changing medium to fresh maintenance medium.
# The ^3H-NKA binding assay measures peptide-receptor binding by a competitive principle of receptor binding between radioactively labelled (3H) NKA (tracer) and synthesized peptide ligands on live cells expressing the receptor of interest. Assay solutions used: TKR buffer (50 mM Tris/HCl pH 7.5, 5 mM MnCl2, and 150 mM NaCl), wash buffer (TKR buffer+0.2% w/v OvAlb), binding buffer (wash buffer+0.1 mg/ml Bacitracin), and tracer solution (binding buffer+˜15000 cpm/well ^3H-tracer). The assay was performed on ice the day after transfection.
# Briefly, maintenance medium was aspirated, and plates were washed ×1 in cold wash buffer before adding 100 μl cold binding buffer and placing at 4° C. to let plates cool. The cold plates were added indicated peptides (ligand) immediately followed by addition of cold tracer solution (˜15000 cpm/well). Plates were immediately moved to 4° C. and incubated for 4 hours. After incubation, binding was stopped by wash ×2 with cold wash buffer before adding 225 μl Ultima Gold XR. Plates were shaken at medium speed for approximately 30 min and left overnight at room temperature before counting the plates in a MicroBeta plate counter (Perkin Elmer).
# [3] = Energy expenditure and weight loss pharmacodynamics in DIO mice; type: in vivo; design: Energy expenditure efficacy (change relative to vehicle control) / Weight loss efficacy (change relative to vehicle control): concentration or dose not given beside the values; conditions: for Energy expenditure EC50 / Energy expenditure efficacy (change relative to vehicle control) / Weight loss EC50 / Weight loss efficacy (change relative to vehicle control): daily s.c. injections for nine days
# Experimental: Indirect calorimetry was used to evaluate the ability of individual peptide analogues to dose-dependently increase energy expenditure (EE) we used metabolic cages and indirect calorimetry measured by the Promethion system. To this end, oxygen consumption was used as a surrogate measure for EE. Substrate preference (fat or carbohydrate) was evaluated using the respiratory exchange ratio (RER). In parallel, behavioral information such as walking distance and water and food intake were recorded.
# Prior to experimentation, DIO mice were transferred to habituation cages for at least 10 days (5 days outside and at least 5 days in the Sable Systems gas analyzer module) to acclimatize. For all in vivo compound tests for EE evaluation, mice received subcutaneous injections between 2 and 4 pm.
# Energy expenditure and weight loss pharmacodynamics: To evaluate the ability of individual peptide analogues to dose-dependently increase EE by indirect calorimetry in DIO mice. Body weights were monitored from beginning of habituation until end of experiment. After habituation, mice were treated with daily injections of NKA(4-10) analogues at four different doses or vehicle by daily subcutaneous injections for nine days.
# EE increase over vehicle was calculated as percent of mean oxygen consumption over a 30-hour period after injection. Prior to injection peptide analogues were dissolved and diluted in in vivo buffer. In order to take into account, the different half-lives for the compounds tested, the doses for each compound were calculated based on the given compound's individual pk-profiles.
Structure (SMILES),EC50 (hNK2R [1]),EC50 (hNK2R [2]),"Reduced weight loss efficacy compared to compound 304, 344 and 383 [3]",Energy expenditure EC50 [3] [nmol/kg],Energy expenditure efficacy (change relative to vehicle control) [3] [%],Weight loss EC50 [3] [nmol/kg],Weight loss efficacy (change relative to vehicle control) [3] [%],"hNK2R, IP3 Efficacy (hNK2R [1])"
"CCCC[C@H](NC(=O)[C@H](CC(C)C)N(C)C(=O)CNC(=O)[C@@H](NC(=O)[C@H](Cc1ccc(O)cc1)NC(=O)[C@H](CCCCN)NC(=O)[C@H](CC(=O)O)NC(=O)COCCOCCNC(=O)COCCOCCNC(=O)CC[C@H](NC(=O)CCCCCCCCCCCCCCCCC(=O)O)C(=O)O)C(C)C)C(N)=O [compound 305, *Asp;Lys;Tyr;Val;Gly;NmLeu;Nle;NH2] ({C18 diacid-γGlu-AEEA-AEEA}-DKYVG[NMeL][Nle]-NH2)",3.7 nM and 4 nM and 2.2 to 13 nM,21 nM and 210 nM and ~100 nM,approximately 50%,34,11,69,6,–
"COCC[C@H](NC(=O)[C@H](CC(C)C)N(C)C(=O)CNC(=O)[C@@H](NC(=O)[C@H](Cc1ccccc1)NC(=O)[C@H](CCCCN)NC(=O)[C@H](CC(=O)O)NC(=O)COCCOCCNC(=O)COCCOCCNC(=O)CC[C@H](NC(=O)CCCCCCCCCCCCCCCCC(=O)O)C(=O)O)[C@@H](C)O)C(N)=O [compound 383, *Asp;Lys;Phe;Thr;Gly;NmLeu;Metox;NH2] ({C18 diacid-γGlu-AEEA-AEEA}-DKFTG[NMeL][hSer](Me)-NH2)",1.6 nM,11 nM,–,110,11,83,11,95%
"COCC[C@H](NC(=O)[C@H](CC(C)C)N(C)C(=O)CNC(=O)[C@@H](NC(=O)[C@H](Cc1ccc(O)cc1)NC(=O)[C@H](CCCCN)NC(=O)[C@H](CC(=O)O)NC(=O)COCCOCCNC(=O)COCCOCCNC(=O)CC[C@H](NC(=O)CCCCCCCCCCCCCCCCC(=O)O)C(=O)O)C(C)C)C(N)=O [compound 344, *Asp;Lys;Tyr;Val;Gly;NmLeu;Metox;NH2] ({C18 diacid-γGlu-AEEA-AEEA}-DKYVG[NMeL][hSer](Me)-NH2)",2.2 nM and 3.1 nM and 5 nM and 3.2 nM,94 nM and 90 nM,–,13,12,130,10,90% and 100% and 110%
"CCCC[C@H](NC(=O)[C@H](CC(C)C)N(C)C(=O)CNC(=O)[C@@H](NC(=O)[C@H](Cc1ccccc1)NC(=O)[C@H](CCCCN)NC(=O)[C@H](CC(=O)O)NC(=O)COCCOCCNC(=O)COCCOCCNC(=O)CC[C@H](NC(=O)CCCCCCCCCCCCCCCCC(=O)O)C(=O)O)C(C)C)C(N)=O [compound 304, *Asp;Lys;Phe;Val;Gly;NmLeu;Nle;NH2]",2.1 nM and 1 to 11 nM,25 nM,–,94,11,16,12,90% and 100% and 80-90%
